In patent publication US12668599B2, “Heterobifunctional compounds and methods of treating disease” (Halda Therapeutics OpCo, Inc., priority 2023, dated 2026):

Tests used:
VCaP cells = assay: Cellular growth inhibition assay for VCaP cells (CellTiter-Glo 2.0, 72 hours); assay type: cell-based, human; settings: CellTiter-Glo 2.0
Method: Exemplary compounds were tested for ability to inhibit the proliferation of VCaP cells. VCap cells are a commercially available human prostate cancer cell line.
VCaP cells were purchased from American Type Cell Culture (ATCC Cat #CRL2876) and then seeded on poly-D-lysine coated, black clear-bottom 384-well plates at 5000/well in 25 μL Dulbecco's Modified Eagle Medium (DMEM) supplemented with 10% w/w Fetal bovine serum (FBS) and 1% w/w Pen-Strep. Pen-Strep is a commercially available mixture of penicillin G and streptomycin, which is used in mammalian cell culture media to prevent bacterial contamination. Dulbecco's Modified Eagle Medium (DMEM) supplemented with 10% w/w fetal bovine serum (FBS) and 1% w/w Pen-Strep is herein referred to as Treatment Medium. Following seeding of cells in the plates, the plates were spun at 300×g for 30 seconds, then equilibrated to room temperature for 30 minutes, and then deposited in a humidified tissue culture incubator maintained at 37° C. with 5% CO2.
(§1) At 24 hours after seeding of the cells, dilutions of test compound were prepared in DMSO and dissolved in Treatment Medium, to achieve a final DMSO concentration of 0.5% w/w, thereby providing the Test Compound Solution. A 25 μL aliquot of the Test Compound Solution was added to cells in the well plates. An equal volume of a solution containing DMSO and Treatment Medium was used as a negative control. Following treatment of cells with Test Compound Solution or said equal volume of a solution containing DMSO and Treatment Medium, the plates were spun at 300×g for 30 seconds, and then left in an incubator for 72 hours.
(§2) At the end of the treatment duration, cell viability was quantified with CellTiter-Glo 2.0 reagent (Promega Cat #G9243). For this purpose, plates were equilibrated to room temperature for 30 minutes, and then 25 μL of CellTiter-Glo 2.0 reagent was added to cells in the plate wells. Plates were then agitated on a shaker for two minutes at 500 rpm and subsequently incubated at room temperature for 10 minutes. Following incubation, the plates were spun at 3000×g for 30 seconds, then sealed with an optical adhesive cover, and luminescence readings were measured with an En Vision Plate Reader.
(§3) Data was normalized using zero luminescence for baseline. A four-parameter non-linear regression curve fit was applied to dose-response data in GraphPad Prism data analysis software to determine the half-maximal growth inhibitory concentration (GI50) for each test compound.

[1] = test system: T-Rex 293 cell line SC3 cells lacking increased expression of androgen receptor protein; assay: Cellular growth inhibition, T-Rex 293 SC3 cells without doxycycline (CellTiter-Glo 2.0, 72 hours); assay type: cell-based; settings: T-Rex 293 SC3 cells not exposed to doxycycline (no increased androgen receptor expression)
Method: (§4) Ability of the test compounds to inhibit proliferation of the foregoing cell types was evaluated according to the procedures set forth below.
(§5) The doxycycline-inducible androgen receptor protein expressing cell line was established using the following protocol: T-Rex 293 cells were purchased from Invitrogen (Cat #R71007) and transfected using Lipofectamine 2000 with the wild-type androgen receptor protein sequence cloned into the pcDNA4/TO vector. Transfected cells were selected using 400 μg/mL Zeocin (Invitrogen Cat #R25001). Following selection, single clones were raised and maintained in Dulbecco's Modified Eagle Medium (DMEM) supplemented with 10% w/w Tetracycline-free fetal bovine serum (FBS) and 250 μg/mL Zeocin. Clones were analyzed for expression of androgen receptor protein in the presence and absence of 10 ng/ml doxycycline (Sigma Cat #D9891), and a single doxycycline-inducible clone (hereinafter “SC3”) was selected for use in downstream assays.
(§6) The SC3 cells were seeded on poly-D-lysine coated, black clear-bottom 384-well plates at 2500/well, in 25 μL Phenol Red Free Dulbecco's Modified Eagle Medium (DMEM) supplemented with 10% w/w charcoal-dextran treated fetal bovine serum (FBS) and 1% w/w pen-strep, with or without 10 ng/ml doxycycline. Pen-Strep is a commercially available mixture of penicillin G and streptomycin, which is used in mammalian cell culture media to prevent bacterial contamination. Phenol Red Free Dulbecco's Modified Eagle Medium (DMEM) supplemented with 10% w/w charcoal-dextran treated fetal bovine serum (FBS) and 1% w/w pen-strep, with or without 10 ng/mL doxycycline is herein referred to as Treatment Medium. Following seeding of cells in the plates, the plates were spun at 300×g for 30 seconds, then equilibrated to room temperature for 30 minutes, and then deposited in a humidified tissue culture incubator maintained at 37° C. with 5% CO2.
as §1, §2, §3

[2] = test system: T-Rex 293 cell line SC3 cells having increased expression of androgen receptor protein due to exposure to doxycycline; assay: Cellular growth inhibition, T-Rex 293 SC3 cells with doxycycline-induced androgen receptor (CellTiter-Glo 2.0, 72 hours); assay type: cell-based; settings: T-Rex 293 SC3 cells with 10 ng/ml doxycycline (increased androgen receptor expression), 72 hours, CellTiter-Glo 2.0
Method: as §4, §5, §6, §1, §2, §3

Row | SMILES | GI50 (VCaP cells; Homo sapiens, VCaP, 72 h) [nM] | GI50 (VCaP cells; 72 hours) [nM] | GI50 ([1]; 72 h) [nM] | GI50 [2] [nM] | GI50 [1] [nM]
1 | COc1cc(O[C@H]2CC[C@H](NC(=O)c3ccc(N4CCC5(CCC(c6ccc(C7=N[C@@H](C)c8nnc(C)n8-c8sc(C)c(C)c87)cc6)C5)C4)nn3)CC2)ccc1C#N (stereo partly drawn) [Compound I-97] |  | < 500 |  | < 500 | < 500
2 | COCC[C@@H]1N=C(c2ccc(C3CCC4(CC3)CCN(c3ccc(C(=O)NC5CCC(Oc6ccc(C#N)c(OC)c6)CC5)nn3)C4)cc2)c2c(sc(C)c2C)-n2c(C)nnc21 (stereo partly drawn) [Compound I-29, N-[4-(4-cyano-3-methoxy-phenoxy)cyclohexyl]-6-[8-[4-[(9S)-9-(2-methoxyethyl)-4,5,13-trimethyl-3-thia-1,8,11,12-tetrazatricyclo[8.3.0.0^2,6]trideca-2 (6),4,7,10,12-pentaen-7-yl]phenyl]-2-azaspiro[4.5]decan-2-yl]pyridazine-3-carboxamide] | < 500 |  | < 500 | < 500 | 
3 | COc1cc(O[C@H]2CC[C@H](NC(=O)c3ccc(N4CCC5(CCC(c6ccc(C7=N[C@@H](C)c8nnc(C)n8-c8sc(C)c(C)c87)c(Cl)c6)CC5)C4)nn3)CC2)ccc1C#N (single isomer, unassigned) [Compound I-64] | 500 to 1500 |  | < 500 | < 500 | 
4 | COc1cc(O[C@H]2CC[C@H](NC(=O)c3ccc(N4C[C@]5(F)CN(c6ccc(C7=N[C@@H](C)c8nnc(C)n8-c8sc(C)c(C)c87)cc6)C[C@]5(F)C4)nn3)CC2)ccc1C#N [Compound I-91] | < 500 |  | < 500 | < 500 | 
5 | COC[C@@H]1N=C(c2ccc(C3CCC4(CC3)CCN(c3ccc(C(=O)NC5CCC(Oc6ccc(C#N)c(OC)c6)CC5)nn3)C4)cc2)c2c(sc(C)c2C)-n2c(C)nnc21 (stereo partly drawn) [Compound I-27, N-[4-(4-cyano-3-methoxy-phenoxy)cyclohexyl]-6-[8-[4-[(9R)-9-(methoxymethyl)-4,5,13-trimethyl-3-thia-1,8,11,12-tetrazatricyclo[8.3.0.0^2,6]trideca-2 (6),4,7,10,12-pentaen-7-yl]phenyl]-2-azaspiro[4.5]decan-2-yl]pyridazine-3-carboxamide] | < 500 |  | < 500 | < 500 | 

Further lines, with some results ahead:

Row | GI50 (VCaP cells; Homo sapiens, VCaP, 72 h) [nM] | GI50 (VCaP cells; 72 hours) [nM] | SMILES | GI50 ([1]; 72 h) [nM] | GI50 [2] [nM] | GI50 [1] [nM]
6 | < 500 |  | Cc1sc2c(c1C)C(c1ccc(C#CC3CC4(C3)CN(c3ccc(C(=O)N[C@H]5CC[C@H](Oc6ccc(C#N)c(OC(F)(F)F)c6)CC5)nn3)C4)cc1)=N[C@@H](C)c1nnc(C)n1-2 [Compound I-12, N-[4-[4-cyano-3-(trifluoromethoxy)phenoxy]cyclohexyl]-6-[6-[2-[4-[(9S)-4,5,9,13-tetramethyl-3-thia-1,8,11,12-tetrazatricyclo[8.3.0.0^2,6]trideca-2 (6),4,7,10,12-pentaen-7-yl]phenyl]ethynyl]-2-azaspiro[3.3]heptan-2-yl]pyridazine-3-carboxamide] | < 500 | < 500 | 
7 | < 500 |  | COc1cc(O[C@H]2CC[C@H](NC(=O)c3ccc(N4CCC5(CCC(c6ccc(C7=N[C@@H](C)c8nnc(C)n8-c8sc(C)c(C)c87)c(C)c6)CC5)C4)nn3)CC2)ccc1C#N (stereo partly drawn) [Compound I-63] | < 500 | < 500 | 
8 | < 500 |  | COc1cc(O[C@H]2CC[C@H](NC(=O)c3ccc(N4CCC5(CC4)CC(Oc4ccc(C6=N[C@@H](Cc7ncco7)c7nnc(C)n7-c7sc(C)c(C)c76)c(F)c4)C5)nn3)CC2)ccc1C#N [Compound I-128, N-[4-(4-cyano-3-methoxy-phenoxy)cyclohexyl]-6-[2-[3-fluoro-4-[(9S)-4,5,13-trimethyl-9-(oxazol-2-ylmethyl)-3-thia-1,8,11,12-tetrazatricyclo[8.3.0.0^2,6]trideca-2 (6),4,7,10,12-pentaen-7-yl]phenoxy]-7-azaspiro[3.5]nonan-7-yl]pyridazine-3-carboxamide] | < 500 | < 500 | 
